Experimental data taken from PubChem BioAssay AID1645863 (Buhrlage Lab, Dana-Farber Cancer Institute and Novartis …, 2021).
Active and inactive are the calls of the source. The rule behind the calls is not given here. Where a SMILES comes first, the peptide text is derived from it. Bridges are numbered along the chain shown (N, C = ends). The star is where a group is joined. ξ: configuration not given here. Pentadecanoyl(3ξ-OH,15-Gua) = N=C(N)NCCCCCCCCCCCCC(O)CC(=O)*

Biological target: Ubiquitin carboxyl-terminal hydrolase 10 (Homo sapiens) (UniProt Q14694)
Experiment: primary hit verification, biochemical, ubiquitin-specific protease 10 deubiquitylase inhibitors, concentration-effect titration (AID 1645863);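 note: potency values describe inhibition of USP10 cleavage of a fluorogenic ubiquitin substrate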
Settings: USP10 deubiquitinase enzymatic assay

Sequence of Ubiquitin carboxyl-terminal hydrolase 10 (Homo sapiens) (Q14694 whole entry, looked up): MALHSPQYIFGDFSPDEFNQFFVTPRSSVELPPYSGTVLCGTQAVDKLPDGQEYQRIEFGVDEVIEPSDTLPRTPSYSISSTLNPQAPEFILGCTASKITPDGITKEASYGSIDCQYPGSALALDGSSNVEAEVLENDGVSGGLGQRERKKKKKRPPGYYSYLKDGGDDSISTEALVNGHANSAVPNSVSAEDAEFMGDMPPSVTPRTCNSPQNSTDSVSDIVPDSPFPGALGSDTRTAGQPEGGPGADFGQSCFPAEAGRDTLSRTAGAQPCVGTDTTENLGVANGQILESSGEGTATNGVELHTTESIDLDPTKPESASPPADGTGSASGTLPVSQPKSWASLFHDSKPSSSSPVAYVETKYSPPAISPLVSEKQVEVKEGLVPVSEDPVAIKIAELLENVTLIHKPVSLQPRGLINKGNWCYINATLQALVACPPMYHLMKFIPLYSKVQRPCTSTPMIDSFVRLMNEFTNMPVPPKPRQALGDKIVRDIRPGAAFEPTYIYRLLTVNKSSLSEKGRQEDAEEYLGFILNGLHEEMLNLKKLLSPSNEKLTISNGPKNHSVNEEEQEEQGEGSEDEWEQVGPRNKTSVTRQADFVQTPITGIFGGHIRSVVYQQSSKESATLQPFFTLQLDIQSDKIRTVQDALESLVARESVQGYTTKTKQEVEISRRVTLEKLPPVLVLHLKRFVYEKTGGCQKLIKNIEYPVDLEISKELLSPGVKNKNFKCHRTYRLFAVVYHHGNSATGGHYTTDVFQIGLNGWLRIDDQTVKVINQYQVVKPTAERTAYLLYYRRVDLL

With `CCOc1ccc(C2SCC(=O)Nc3c2c(=O)[nH]n3C2CCCCC2)cc1` (stereo not given) the IC50 was > 40 µM (inactive).
With `COc1ccccc1C(=O)N1CCC[C@H](Cn2nnc(-c3cccnc3)n2)C1` the IC50 was > 40 µM (inactive).
For `Cc1cccc(C)c1NC(=O)CN1C(=O)CC(c2ccccc2)=Nc2ccccc21`, the IC50 was 26.4 µM.
`Cc1ccc(S(=O)(=O)Nc2ccccc2C(=O)Nc2nc3ccc(Br)cc3s2)cc1` was tested, and the IC50 was > 40 µM (inactive).
With `Cc1ccc(Nc2nc(Nc3cccc(F)c3)nc3nccnc23)c(C)c1` the IC50 was > 40 µM (inactive).
In the case of `c1cncc(-c2cnc3sc(NCc4ccc5c(c4)OCO5)nn23)c1`, the IC50 is reported as > 40 µM (inactive).
In the case of `CCCc1ccc(C(=O)[C@@H]2[C@@H](C(=O)c3cccs3)N3c4ccc(C)cc4C(C)=C[C@@H]3[C@@]23C(=O)Nc2ccccc23)cc1`, the IC50 is reported as > 40 µM (inactive).
In the case of `COCCn1c(=O)[nH]c2cc(C(=O)NCCNc3ccc([N+](=O)[O-])cc3C#N)ccc2c1=O`, the IC50 is reported as 15.5 µM.
`O=C(NC1CCCCCC1)c1cccc(S(=O)(=O)Nc2cc(C(F)(F)F)ccc2Cl)c1` gave an IC50 of 21.1 µM.
`Cn1c2ccccc2c(=O)c2c(=O)n(Cc3ccco3)c(-c3ccccc3F)nc21` was tested, and the IC50 was 8.37 µM.
For `O=C(CSc1nc(=O)n(Cc2ccncc2)c2c1CCC2)NCCc1ccccc1`, the IC50 was > 40 µM (inactive).
With `O=C(Cn1c(=O)n(-c2ccccc2)c(=O)c2ccc(C(=O)NCc3ccc4c(c3)OCO4)cc21)NCCC1=CCCCC1` the IC50 was 16.2 µM.
With `O=c1c2cc(Br)ccc2[nH]c(=S)n1Cc1cccnc1` the IC50 was > 40 µM (inactive).
In the case of `Cc1ccc2cc(CNc3ccccc3)c(=O)n(CC(=O)Nc3ccccc3C)c2c1`, the IC50 is reported as > 40 µM (inactive).
`COc1ccc(Cn2nc(C)cc2NC(=O)c2cccc(F)c2)cc1OC` was tested, and the IC50 was > 40 µM (inactive).
For `Cc1ccc(Cl)cc1NC(=O)Cn1c(=O)n(CCC(=O)NCc2ccco2)c(=O)c2ccccc21`, the IC50 was 13.1 µM.
In the case of `Cc1nc(N2CCN(c3ccc(Cl)cc3)CC2)c2oc3ccccc3c2n1`, the IC50 is reported as 17.7 µM.
With `O[C@H]1[C@H](NCc2cccc(C(F)(F)F)c2)[C@@H](c2cncnc2)C[C@H]1O` the IC50 was > 40 µM (inactive).
In the case of `COc1ccc(C(=O)Nc2nc(-c3ccc4c(c3)NC(=O)CO4)c(C)s2)cc1OC`, the IC50 is reported as > 40 µM (inactive).
`N#Cc1cc(C(=O)c2cc(Cl)ccc2O)cn(-c2ccccn2)c1=O` was tested, and the IC50 was > 40 µM (inactive).
In the case of `O=C(CSc1ccc(-c2cccc([N+](=O)[O-])c2)nn1)Nc1cccc(F)c1`, the IC50 is reported as 15.9 µM.
In the case of `Cc1ccc(NC(=O)c2cc(-c3cccnc3)n[nH]2)cc1F`, the IC50 is reported as > 40 µM (inactive).
In the case of `CCCn1cc(-c2nc(-c3ccccn3)no2)c(=O)c2ccccc21`, the IC50 is reported as > 40 µM (inactive).
`N#Cc1cccc(NC(=O)Nc2cccn(Cc3ccc(F)cc3)c2=O)c1` was tested, and the IC50 was > 40 µM (inactive).
`Cc1cc(-c2ccc(S(=O)(=O)NCc3ccc(Cl)cc3)s2)on1` was tested, and the IC50 was > 40 µM (inactive).
With `Cc1ccc(-c2nnc3ccc(SCC(=O)N4CCCc5ccccc54)nn23)cc1` the IC50 was > 40 µM (inactive).
`Cc1cccc(-n2ccnc(SCC(=O)Nc3ccc(Cl)cc3F)c2=O)c1` showed an IC50 of 16.1 µM.
`CC1NC(=O)C(CC(N)=O)NC(=O)C(C(C)O)NC(=O)C(Cc2ccc(O)cc2)NC(=O)C(C(C)C)NC(=O)C(NC(=O)CC(O)CCCCCCCCCCCCN=C(N)N)C(C)OC1=O` (stereo not given) ({Pentadecanoyl(3ξ-OH,15-Gua)}-TVYTNA; ester 1-C; configuration not given here) was tested, and the IC50 was > 40 µM (inactive).
`O=C(NCc1ccccc1)Nc1cccc2ccccc12` was tested, and the IC50 was > 40 µM (inactive).
`O=C(Cn1c(=O)n(Cc2ccc3c(c2)OCO3)c(=O)c2cccnc21)Nc1ccc(F)cc1` was tested, and the IC50 was > 40 µM (inactive).
With `CCOc1ccccc1NC(=O)Cn1c(=O)n(CCC(=O)NCCc2ccc(OC)c(OC)c2)c(=O)c2ccccc21` the IC50 was > 40 µM (inactive).
Work on `O=C(NCc1ccc2c(c1)OCO2)c1[nH]nc2c1COc1ccccc1-2` yielded an IC50 of 15.2 µM.
`O=C(c1cc2occc2c(Nc2ccc(F)cc2)n1)N1CCN(c2ccccc2)CC1` was tested, and the IC50 was > 40 µM (inactive).
With `O=C(Cn1cccc(-c2nc(-c3ccccc3)no2)c1=O)Nc1ccccc1F` the IC50 was > 40 µM (inactive).
`Cc1ccc(Nc2nc3c(S(=O)(=O)c4ccccc4)nnn3c3ccccc23)c(C)c1` was tested, and the IC50 was > 40 µM (inactive).
In the case of `O=C(CCCCn1c(=O)[nH]c2ccccc2c1=O)Nc1cccc(Cl)c1`, the IC50 is reported as > 40 µM (inactive).
In the case of `O=C(Cn1c(-c2nc(-c3cccc(F)c3)no2)cccc1=O)NCc1ccco1`, the IC50 is reported as > 40 µM (inactive).
With `CCc1ccc(-n2cc(OC(C)=O)c3c2nc(C)n2c4ccccc4nc32)cc1` the IC50 was > 40 µM (inactive).
With `Cn1c(=O)c2nc(-c3ccc(Cl)cc3)nnc2n(C)c1=O` the IC50 was 3.21 µM.
For `CC(=O)c1ccc(NC(=O)CCc2c(C)c3c(C)nn(-c4ccccc4)c3n(C)c2=O)cc1`, the IC50 was > 40 µM (inactive).
Work on `NC(=O)c1ccccc1NC(=O)COc1ccc2c(c1)oc(=O)c1ccccc12` yielded an IC50 of 5.75 µM.
`Cc1ccc(NC(=O)Cn2c(=O)n(CC(=O)NCCc3ccccc3)c(=O)c3sccc32)cc1C` was tested, and the IC50 was 21 µM.
Work on `Cc1sc(NC(=O)Cn2nnc3ccccc32)nc1-c1ccc2c(c1)CCN2C(=O)c1ccccc1F` yielded an IC50 of 16.3 µM.
`COC(=O)c1ccc(Nc2cc(C)nc3cc(C(F)(F)F)ccc23)cc1` gave an IC50 of 30.5 µM.
`CCc1nc(SCC(=O)Nc2ccc(Cl)c(Cl)c2)c2oc3ccccc3c2n1` gave an IC50 of 39.4 µM.
In the case of `Cc1ncc(CO)c2c1Oc1nc(-c3cccc(Cl)c3)nc(SCC(=O)N3CCCCC3)c1C2`, the IC50 is reported as > 40 µM (inactive).
For `Cc1ccc(NC(=O)Nc2ccccc2OCc2cc(=O)n3cc(C)ccc3n2)cc1`, the IC50 was > 40 µM (inactive).
`CCOc1ccc(-n2ccnc(SCC(=O)Nc3ccccc3F)c2=O)cc1` was tested, and the IC50 was 39.1 µM.
`CCc1ccc(NC(=O)Cn2c(=O)n(Cc3ccccc3)c(=O)c3nn(CC)cc32)cc1` was tested, and the IC50 was > 40 µM (inactive).
`O=C(COc1ccc(C2CCCCC2)cc1)Nc1ccc(-c2nn3cnnc3s2)cc1` was tested, and the IC50 was > 40 µM (inactive).
In the case of `O=C(c1cscn1)N1CCC2(CC1)CC1(CO2)Nc2ccccc2-n2cccc21` (stereo not given), the IC50 is reported as > 40 µM (inactive).
`COc1ccc(N/C=C/c2onc(C)c2[N+](=O)[O-])c(OC)c1` was tested, and the IC50 was > 40 µM (inactive).
In the case of `O=C(Nc1ccc(Cl)cc1F)c1cc(-c2ccccn2)n[nH]1`, the IC50 is reported as > 40 µM (inactive).
Compound `O=C(CSc1nnc2n(-c3ccccc3)c(=O)c3ccccc3n12)c1ccc(F)cc1` has an IC50 of 12.9 µM.
With `CCc1cccc(C)c1NC(=O)Cn1nc2ccc(C(=O)NCc3ccccc3)cn2c1=O` the IC50 was 29.3 µM.
`Cn1cc(C(=O)NCC2COc3ccccc3O2)c(=O)c2cc(S(=O)(=O)N3CCCCC3)ccc21` (stereo not given) was tested, and the IC50 was > 40 µM (inactive).
Compound `COc1cc(NC(=O)Cn2c(=O)n(-c3ccc(CC(=O)NCc4ccco4)cc3)c(=O)c3ccccc32)cc(OC)c1` has an IC50 of 23.3 µM.
For `O=C(COc1ccc(Cl)cc1)Nc1noc(-c2cccs2)n1`, the IC50 was > 40 µM (inactive).
In the case of `COc1ccc(NC2c3ccccc3C(=O)N2c2ccccn2)cc1` (stereo not given), the IC50 is reported as > 40 µM (inactive).
With `CNc1ccc(-c2noc([C@@H]3CCCN3Cc3cccc(C#N)c3)n2)cn1` the IC50 was > 40 µM (inactive).
With `CC(C)=CCC/C(C)=C/COc1ccc(/C=C2\C(=O)N(O)[C@@H](C)C(=O)N2O)cc1` the IC50 was 14.5 µM.
With `CC1(C(=O)NCc2ccc(F)cc2)Cn2nc(-c3ccco3)cc2C(=O)N1c1ccc2c(c1)OCCO2` (stereo not given) the IC50 was > 40 µM (inactive).
With `O=C(Cn1c(=O)n(Cc2ccccc2)c(=O)c2ncccc21)NCc1ccccc1Cl` the IC50 was > 40 µM (inactive).
With `O=C(Cn1c(=O)n(CC2CCC(C(=O)NC3CCCC3)CC2)c(=O)c2ccccc21)NCCC1=CCCCC1` (stereo not given) the IC50 was > 40 µM (inactive).
In the case of `O=C(Nc1cccc([N+](=O)[O-])c1)Nc1ccc2snnc2c1`, the IC50 is reported as > 40 µM (inactive).
In the case of `COc1cccc(CNc2ccc(-c3nc(-c4ccccc4)no3)nn2)c1`, the IC50 is reported as > 40 µM (inactive).
For `COc1ccc(-c2cc3nc([C@H](C)NC(=O)Cc4cccc(F)c4)nn3cn2)cc1`, the IC50 was > 40 µM (inactive).
In the case of `CCN(c1ccc(NC(=O)CSc2nnc(-c3ccccc3)n2-c2ccc(OC)c(OC)c2)cc1)C(C)C`, the IC50 is reported as > 40 µM (inactive).
In the case of `Cc1ccc(N2CC(c3nnc(NC(=O)CCc4ccccc4)s3)CC2=O)cc1` (stereo not given), the IC50 is reported as > 40 µM (inactive).
`COc1ccc(OC)c(NC2=NS(=O)(=O)C(c3cccc(Br)c3)=C2C)c1` was tested, and the IC50 was > 40 µM (inactive).
`COc1ccc(S(=O)(=O)NCc2ccc3c(c2)cc(C)n3C)cc1` was tested, and the IC50 was > 40 µM (inactive).
`O=C(Cc1ccc(-n2c(=O)c3ccccc3n(CC(=O)Nc3ccc(Cl)cc3Cl)c2=O)cc1)NCc1ccco1` gave an IC50 of 11.3 µM.
In the case of `Cc1c(-c2nc(-c3ccccc3Cl)no2)nnn1-c1cccc(F)c1`, the IC50 is reported as > 40 µM (inactive).
For `COc1ccc(NC(=O)Cn2c(=O)n(CCCC(=O)NC3CCCC3)c(=O)c3cc(Cl)ccc32)c(OC)c1`, the IC50 was 27.8 µM.
`Cc1cc(NC(=O)Cn2c(=O)n(Cc3ccco3)c(=O)c3ccc(C(=O)NCCc4ccccc4)cc32)n[nH]1` was tested, and the IC50 was 23 µM.
Work on `CC(NC(=O)c1nc2n(n1)-c1ccccc1S(=O)(=O)N2)c1cc2ccccc2o1` (stereo not given) yielded an IC50 of 30.7 µM.
In the case of `O=C(Nc1cccc(-c2nc3cnccc3o2)c1)c1ccc(Br)o1`, the IC50 is reported as > 40 µM (inactive).
With `O=C(CNS(=O)(=O)c1ccc(F)cc1)N1CCCC(c2nnc3ccccn23)C1` (stereo not given) the IC50 was > 40 µM (inactive).
`NS(=O)(=O)c1cccc(NC(=O)/C=C/c2cn(-c3ccccc3)nc2-c2cccc([N+](=O)[O-])c2)c1` gave an IC50 of 27.4 µM.
For `O=C(Nc1ccc(F)cc1F)c1cc(-c2ccccn2)n[nH]1`, the IC50 was > 40 µM (inactive).
For `COc1ccc(Cl)cc1NC(=O)c1cc(-c2ccccn2)n[nH]1`, the IC50 was 9.33 µM.
In the case of `CCn1c(SCC(=O)c2c(N)n(CC(C)C)c(=O)n(C)c2=O)nnc1-c1ccccc1`, the IC50 is reported as > 40 µM (inactive).
In the case of `O=C(Cn1cnc2cc([N+](=O)[O-])ccc2c1=O)NCc1ccc2c(c1)OCO2`, the IC50 is reported as > 40 µM (inactive).
In the case of `COc1ccc(CC(=O)OCC(=O)N2c3ccccc3NC(=O)C2(C)C)cc1`, the IC50 is reported as > 40 µM (inactive).
With `Cc1cc(=O)n(CC(=O)Nc2ccccc2C)c(Nc2ccc(F)cc2)n1` the IC50 was 28.4 µM.
`COc1cccc(NC(=O)CCc2nnc3n(CCCOC(C)C)c(=O)c4ccccc4n23)c1` was tested, and the IC50 was > 40 µM (inactive).
`C/C=C/C=C/[C@@H]1Cc2cc(O)cc(O)c2O1` was tested, and the IC50 was 35.6 µM.
`COc1ccc(-c2cc3nc([C@H](C)NC(=O)Cc4ccccc4C)nn3cn2)cc1` was tested, and the IC50 was > 40 µM (inactive).
`O=C(Cn1ncc2c(=O)oc3ccccc3c21)NCc1ccc2c(c1)OCO2` was tested, and the IC50 was > 40 µM (inactive).
In the case of `Cc1ccc(NC(=O)Nc2ccc(C)n(CC(=O)Nc3cc(C)ccc3C)c2=O)cc1`, the IC50 is reported as > 40 µM (inactive).
